Measurements reported in US20250243427A1, “PRECURSORS OF PHENOLIC FRAGRANT COMPOUNDS” (GIVAUDAN SA, priority 2021, published 2025).

Test: Odor description on paper blotter
Details: 1% solution in EtOH on paper blotter, 24 h

Molecule | Odor description
CCOc1cc(C=O)ccc1OCC/C=C/C(C)C [Example 32, (E)-3-ethoxy-4-((5-methylhex-3-en-1-yl)oxy)benzaldehyde] | powdery, vanilla, green, hazelnut, chocolate
C=CCC(C=C(C)C)Oc1ccc(CCC(C)=O)cc1 (stereo not shown) [Example 27, 4-(4-((6-methylhepta-1,5-dien-4-yl)oxy)phenyl)butan-2-one] | fruity (powdery, sweet, raspberry)
3-ethoxy-4-((4-methylhepta-3,6-dien-1-yl)oxy)benzaldehyde and 3-ethoxy-4-((4-methylhepta-3,5-dien-1-yl)oxy)benzaldehyde [Example 29] | powdery (vanilla) sweet (sugary)
C=CCCOc1ccc(CC=C)cc1OC [Example 13, 4-allyl-1-(but-3-en-1-yloxy)-2-methoxybenzene] | slightly spicy (iso eugenol) fruity (berry)
CC/C=C/CCOc1ccc(C=O)cc1OCC [Example 2, (E)-3-ethoxy-4-(hex-3-en-1-yloxy)benzaldehyde] | powdery (vanilla, creamy) slightly fruity (raspberry, strawberry)
CC/C=C\CCOc1ccc(COC)cc1OCC [Example 49, (Z)-2-ethoxy-1-(hex-3-en-1-yloxy)-4-(methoxymethyl)benzene] | spicy (eugenol, smokey), powdery (vanilla)
CC/C=C\CCOc1cc(C)cc(OC)c1 [Example 41, (Z)-1-(hex-3-en-1-yloxy)-3-methoxy-5-methylbenzene] | green, bell pepper
CCc1ccc(OCCC=C(C)C)cc1 [Example 42, 1-ethyl-4-((4-methylpent-3-en-1-yl)oxy)benzene] | animalic, leathery, phenolic, paracresol
CCOc1cc(C=O)ccc1OCCC=CCCOc1ccc(C=O)cc1OCC [Example 52, 4,4′-(hex-3-ene-1,6-diylbis(oxy))bis(3-ethoxybenzaldehyde)] | powdery (vanilla)
C=CCCOc1ccc(C=O)cc1OCC [Example 12, 4-(but-3-en-1-yloxy)-3-ethoxybenzaldehyde] | powdery (vanilla, creamy, dough)
CCCC/C=C\CCOc1ccc(C=O)cc1OCC [Example 17, (Z)-3-ethoxy-4-(oct-3-en-1-yloxy)benzaldehyde] | vanilla (powdery, spicy, creamy)
CC/C=C\CCOc1ccc(C=NOC)cc1OCC [Example 47, 3-ethoxy-4-(((Z)-hex-3-en-1-yl)oxy)benzaldehyde O-methyl oxime] | vanilla (sweet, gourmand, carnation floral, chestnut cream)
CC(C)=CCCOc1ccc(C)cc1 [Example 44, 1-methyl-4-((4-methylpent-3-en-1-yl)oxy)benzene] | animalic, leathery, phenolic, paracresol
COc1cc(C)cc(OCCC=C(C)C)c1 [Example 43, 1-methoxy-3-methyl-5-((4-methylpent-3-en-1-yl)oxy)benzene] | animalic, leathery, phenolic, paracresol, green, hay, rooty
C=CCC(C=C(C)C)Oc1ccc(C=O)cc1OCC (stereo not shown) [Example 24, 3-ethoxy-4-((6-methylhepta-1,5-dien-4-yl)oxy)benzaldehyde] | powdery (creamy, vanilla)
C=C(C)CCOc1ccc(C=O)cc1OCC [Example 15, 3-ethoxy-4-((3-methylbut-3-en-1-yl)oxy)benzaldehyde] | mild, powdery, spicy
COC(=O)c1c(C)cc(OCCC=C(C)C)c(C)c1O [Example 62, methyl 2-hydroxy-3,6-dimethyl-4-((4-methylpent-3-en-1-yl)oxy)benzoate] | mossy (evernyl)
CCCc1cccc(OCCC=C(C)C)c1 [Example 45, 1-((4-methylpent-3-en-1-yl)oxy)-3-propylbenzene] | animalic, leathery, phenolic, paracresol, green, hay, rooty
C=CCC(CCC)Oc1ccc(C=O)cc1OCC (stereo not shown) [Example 19, 3-ethoxy-4-(hept-1-en-4-yloxy)benzaldehyde] | powdery (dry, vanilla) fruity (metallic)

Molecule | Odor description
C=CCC(CC=C)Oc1ccc(C=O)cc1OCC [Example 22, 3-ethoxy-4-(hepta-1,6-dien-4-yloxy)benzaldehyde] | powdery (creamy, vanilla)
CC/C=C\CCOc1ccccc1C(=O)CC [Example 46, (Z)-1-(2-(hex-3-en-1-yloxy)phenyl)propan-1-one] | green, wintergreen
C=CCC(Oc1ccc(C=O)cc1OCC)C(=O)OCC (stereo not shown) [Example 61, ethyl 2-(2-ethoxy-4-formylphenoxy)pent-4-enoate] | sweet powdery gourmand (vanilla, coffee) creamy (vanilla, milky)
CCOc1cc(C=O)ccc1OC1CC=CCC1 (stereo not shown) [Example 51, 4-(cyclohex-3-en-1-yloxy)-3-ethoxybenzaldehyde] | powdery (vanilla)
CCC=CCCOc1cc(C)ccc1C(C)C [Example 30, 2-(hex-3-en-1-yloxy)-1-isopropyl-4-methylbenzene] | aromatic, thymol, menthol
CC/C=C\CCOc1ccccc1OCC [Example 39, (Z)-1-ethoxy-2-(hex-3-en-1-yloxy)benzene] | medicinal, phenolic, vanilla
CCCC(C)=CCCOc1ccc(C=O)cc1OC [Example 38, 3-methoxy-4-((4-methylhept-3-en-1-yl)oxy)benzaldehyde] | powdery, vanilla, chocolate
CCOc1cc(C=O)ccc1OCCC=CCC(C)C [Example 31, 3-ethoxy-4-((6-methylhept-3-en-1-yl)oxy)benzaldehyde] | powdery, vanilla, green, hazelnut, chocolate
C=CCC(C=CC)Oc1ccc(CCC(C)=O)cc1 (stereo not shown) [Example 26, 4-(4-(hepta-1,5-dien-4-yloxy)phenyl)butan-2-one] | sweet (icing sugar cristal) raspberry
CC/C=C/CCOc1ccc(CCC(C)=O)cc1 [Example 7, (E)-4-(4-(hex-3-en-1-yloxy)phenyl)butan-2-one] | raspberry
C=CCC(CC)Oc1ccc(CCC(C)=O)cc1 (stereo not shown) [Example 25, 4-(4-(hex-5-en-3-yloxy)phenyl)butan-2-one] | sweet (icing sugar cristal) raspberry
CC/C=C\CCOc1ccc(COCC)cc1OCC [Example 48, (Z)-2-ethoxy-4-(ethoxymethyl)-1-(hex-3-en-1-yloxy)benzene] | spicy (eugenol, smokey), powdery (vanilla)
COc1cc(C=O)ccc1OCCC=C(C)C [Example 37, 3-methoxy-4-((4-methylpent-3-en-1-yl)oxy)benzaldehyde] | powdery, vanilla, creamy
CCC(C)=CCCOc1ccc(CCC(C)=O)cc1 [Example 36, 4-(4-((4-methylhex-3-en-1-yl)oxy)phenyl)butan-2-one] | fruity, raspberry, sweet, powdery
CC/C=C\CC(C)Oc1ccc(C=O)cc1OCC (stereo not shown) [Example 4, (Z)-3-ethoxy-4-(hept-4-en-2-yloxy)benzaldehyde] | sweet (brown sugar) powdery (vanillin, chocolate, ice cream)
CC/C=C\CCOc1ccc(COC(C)C)cc1OCC [Example 50, (Z)-2-ethoxy-1-(hex-3-en-1-yloxy)-4-(isopropoxymethyl)benzene] | spicy (eugenol, smokey), powdery (vanilla), green
C=C(C)CCOc1ccc(CCC(C)=O)cc1 [Example 16, 4-(4-((3-methylbut-3-en-1-yl)oxy)phenyl)butan-2-one] | fruity (raspberry) sweet
CC=CCCOc1cc(C)c(C(=O)OC)c(O)c1C [Example 63, methyl 2-hydroxy-3,6-dimethyl-4-(pent-3-en-1-yloxy)benzoate] | mossy, evernyl, dry powdery
